Test results taken from ChEMBL document CHEMBL1154259, “Cell recognition enhanced enzyme hydrolysis of a model peptide-drug conjugate” (Bioorg Med Chem Lett, 2009).
Active and inactive are the calls of the source. No cut-off for these calls is given here. Where a SMILES comes first, the peptide text is derived from it. The star is where a group is joined. ACC = NC(=O)Cc1cc(=O)oc2cc(N*)ccc12

What was measured:
Papain (Carica papaya) = molecular target: T1, Papain (Carica papaya) (UniProt P00784); experiment: Activity at Carica papaya papain expressed in human A375 cells assessed as 7-amino-4-carbamoylmethylcoumarin release; assay type: cell-based; settings: A-375
T1 sequence (whole entry): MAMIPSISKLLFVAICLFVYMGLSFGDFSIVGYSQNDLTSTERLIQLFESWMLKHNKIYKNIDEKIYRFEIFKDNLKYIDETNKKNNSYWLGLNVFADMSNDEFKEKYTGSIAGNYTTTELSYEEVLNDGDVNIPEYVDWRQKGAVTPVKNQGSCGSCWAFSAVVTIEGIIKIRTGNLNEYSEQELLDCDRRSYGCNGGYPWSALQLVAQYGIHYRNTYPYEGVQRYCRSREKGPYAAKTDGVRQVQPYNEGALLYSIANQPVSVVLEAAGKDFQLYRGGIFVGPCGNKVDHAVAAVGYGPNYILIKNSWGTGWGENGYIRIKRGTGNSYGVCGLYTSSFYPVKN

[1] = molecular target: Integrin alpha-4/beta-1 (Homo sapiens) (UniProt P05556+P13612); experiment: Binding affinity to human integrin alpha4beta1 expressed in human A375 cells by flow cytometry; assay type: cell-based; settings: A-375

Activity (Papain (Carica papaya)) [ng/min]	Activity [1]	Compound
15.6		CC(C)C[C@H](N)C(=O)N[C@@H](CC(=O)O)C(=O)N[C@H](C(=O)N[C@@H](CCCNC(=N)N)C(=O)N[C@@H](Cc1c[nH]c2ccccc12)C(=O)N[C@@H](CCC(N)=O)C(=O)N[C@@H](Cc1ccc(O)cc1)C(=O)N[C@H](C(=O)N1CCC[C@H]1C(=O)NCC(=O)N[C@@H](CCCCN)C(=O)N[C@@H](Cc1ccccc1)C(=O)N[C@H](C(=O)N[C@H](C(=O)N[C@@H](CCC(N)=O)C(=O)Nc1ccc2c(CC(N)=O)cc(=O)oc2c1)C(C)C)[C@H](C)O)C(C)C)C(C)C
	inactive	CC(C)[C@H](NC(=O)[C@@H](NC(=O)[C@H](Cc1ccccc1)NC(=O)[C@H](CCCCN)NC(=O)CNC(=O)[C@@H]1CCCN1C(=O)[C@@H](NC(=O)[C@H](Cc1ccc(O)cc1)NC(=O)[C@H](CCC(N)=O)NC(=O)[C@H](Cc1c[nH]c2ccccc12)NC(=O)[C@@H](N)CCCNC(=N)N)C(C)C)[C@@H](C)O)C(=O)N[C@@H](CCC(N)=O)C(=O)Nc1ccc2c(CC(N)=O)cc(=O)oc2c1 (H-RWQYVPGKFTVQ-{ACC})
